For orientation: EC50 means the midpoint of the concentration-response curve.

Here are results for one molecule from article PMC12491715 (Acta Pharmaceutica Sinica. B, 2025).

The nature of series [1]: MTS assay, metabolic activity. Type of series: cell-based. The note with it: human, SH-SY5Y neuroblastoma cells, read-out: cytotoxic EC50. How it is done:
Cell culture and treatments The human neuroblastoma SH-SY5Y cell line was purchased from American Type Culture Collection (Manassas, VA, USA). Cells were cultured in Advanced Dulbecco’s modified Eagle’s medium (Gibco, Thermo Fisher Scientific, Waltham, MA, USA) supplemented with 10% fetal bovine serum (FBS, Gibco), 2 mmol/L L-glutamine, 50 U/mL penicillin and 50 μg/mL streptomycin (Sigma, St. Louis, MO, USA) in a humidified atmosphere of 95% air and 5% CO2 at 37 °C, and grown to 80% confluence. Prior to cell treatment, complete medium was replaced with serum-reduced medium (i.e., with 2% FBS). Compounds were prepared as a stock solution of 50 mmol/L in DMSO.
MTS assay SH-SY5Y cells were seeded in 96-well plates (10^4/well) and assessed by MTS ([3-(4,5-dimethylthiazol-2-yl)-5-(3-carboxymethoxyphenyl)-2-(4-sulfophenyl)-2H-tetrazolium, inner salt) assay for their response to compounds. Cells were treated with increasing concentrations of compounds (0.1–10 μmol/L for 5, 1–100 μmol/L for 6–8) in a serum-reduced medium, and metabolic activity was assessed after 24 h (5) or 48 h (6–8) using the CellTiter 96® Aqueous One Solution Cell Proliferation Assay (Promega, Madison, WI, USA), in accordance with the manufacturer’s instructions. Absorbance was measured with an automatic microplate reader (Tecan Safire^2, Switzerland) at 492 nm. Results are presented as a percentage of the control (DMSO).

Another series deals with T1, AChE (Mus musculus, UniProt P21836).
T1 construct: from tissue; host or cells: mouse serum (C57BL/6JRccHsd)
T1 sequence (P21836 32-614): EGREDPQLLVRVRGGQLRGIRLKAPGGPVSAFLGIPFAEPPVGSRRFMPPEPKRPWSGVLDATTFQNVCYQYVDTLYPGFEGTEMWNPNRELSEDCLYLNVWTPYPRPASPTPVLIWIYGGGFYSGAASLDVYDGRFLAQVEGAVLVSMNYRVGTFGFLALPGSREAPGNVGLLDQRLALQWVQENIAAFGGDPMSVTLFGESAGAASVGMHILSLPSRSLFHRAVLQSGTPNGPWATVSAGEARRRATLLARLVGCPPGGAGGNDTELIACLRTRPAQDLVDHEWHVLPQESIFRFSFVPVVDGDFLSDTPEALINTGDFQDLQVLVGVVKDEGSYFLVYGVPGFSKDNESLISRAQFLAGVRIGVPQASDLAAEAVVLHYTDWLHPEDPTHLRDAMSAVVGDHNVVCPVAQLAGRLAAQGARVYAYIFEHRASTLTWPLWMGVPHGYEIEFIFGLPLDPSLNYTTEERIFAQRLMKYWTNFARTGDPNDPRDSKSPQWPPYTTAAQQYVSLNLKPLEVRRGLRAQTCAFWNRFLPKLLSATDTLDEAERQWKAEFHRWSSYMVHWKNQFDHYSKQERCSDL
The series is described as follows: Cholinesterase inhibition upon repeated dosing, serum AChE. Type of series: in vivo, C57BL/6JRccHsd mice. The source says:
The 12 mice used in this pilot study were 9–14 months old male wild-type C57BL/6JRccHsd mice bred in the Laboratory of Animal Genomics at the Faculty of Veterinary Medicine, University of Ljubljana, or purchased from Envigo RMS Holding Corp. Mice were conventionally bred in open polycarbonate cages (Tecniplast, Buguggiate, Italy) and provided with wood chip bedding (Lignocel®, Rettenmaier and Sons, Germany). Mice were kept under standard conditions, including a 12:12 dark–light cycle (LED, CCT 3000 k, with no more than 25 lux above the cage), a temperature range of 21–24 °C, and humidity between 50%–60%. They were fed irradiated rodent diet (Teklad global 16% protein rodent diet®, BN 2916, Envigo, Udine, Italy) and had access to drinkable tap water ad libitum. Due to the nature of this pilot study, the mice were housed individually. The experimental design was evaluated by the National Ethics Committee for Animal Experiments and approved by the Veterinary Administration of the Republic of Slovenia (document no. U34401-10/2021/8, with amendments U34401-10/2021/13 and U34401-10/2021/1).
Before the start of study, blood was drawn from the submandibular vein (facial vein) of the animals under isoflurane inhalation anesthesia (Isoflurin®, VetPharma, Spain) using a 5 mm lancet (Goldenrod Animal Sterile, MEDIpoint, Inc., NY, USA), collected in a microtube (Eppendorf, Safe-Lock tube, 0.5 mL, Eppendorf AG, Germany) and allowed to clot. After approximately 1 h, the blood was centrifuged at 6000 × g for 15 min at 4 °C to obtain the sera, which were stored at –80 °C until analysis.
Seven animals received the 1 mg/kg dose of compound 8, and five animals received the 5 mg/kg dose of compound 8. Compound 8 was prepared as a stock solution in 100% MeCN (5 and 10 mg/mL) and kept refrigerated for the duration of the study. The dosages were prepared as follows: based on the animal’s body weight, a calculated volume of compound 8 stock solution was accurately pipetted onto a cubic piece (approx. 50 mg) of sterilized toast (Ölz multigrain toast, Rudolf Ölz Meisterbäcker GmbH & Co KG, Austria), and left to dry at room temperature for 5 min. Subsequently, 25 μL of 50% sucrose in distilled water were added at the same site to mask the bitter taste of compound 8. These dosage units were prepared twice a week during the study and stored in a closed glass petri dish at room temperature until use. […] Compound 8 was administered in this way for 27 days, eliminating the need for repeated handling and injection. The animals were observed daily for general activity level, hair coat quality or other abnormal behavior or clinical signs.
24 h after the last dose was administered, the mice were humanly euthanized under isoflurane inhalation anesthesia (Isoflurin®, VetPharma, Spain) and the blood was withdrawn from the left ventricle using a syringe, collected in a microtube (Eppendorf, Safe-Lock tube, 0.5 mL, Eppendorf AG, Germany) and allowed to clot. After approximately 1 h, the blood was centrifuged at 6000 × g for 15 min at 4 °C to obtain the sera, which were stored at –80 °C until analysis. […] Animal sera (5–10 μL) were diluted in 0.5 mmol/L DTNB in 0.1 mol/L sodium phosphate buffer pH 7.4 (total volume 1000 μL), substrate (5 μL of 100 mmol/L, final concentration 0.5 mmol/L) was added, and the increase in absorbance monitored for 3 min. BChE activity was determined using butyrylthiocholine iodide, while AChE activity was determined on isoOMPA-inhibited sera (buffer-diluted sera were preincubated for 25 min with 1 μL of 100 mmol/L isoOMPA–0.1 mmol/L final concentration) using acetylthiocholine iodide (final concentration 0.5 mmol/L). Measurements were performed in triplicate and pairwise compared before and after treatment for each subject (n = 5 per group).

Values joined by “and” are separate entries in the source; they are usually repeats but may differ in a detail not shown here. Equal entries are not always repeated. Where two headings read alike, the source gives them in different places.

For the molecule `CCN(CC)C(=O)n1cnc(C2(CC)Cc3ccccc3C2)c1` [Compound 8, N,N-Diethyl-4-(2-ethylindan-2-yl)-1H-imidazole-1-carboxamide], the EC50 at 48 h in series [1] is > 100 µM. Moreover, at AChE (1 or 5 mg/kg p.o. once a day for 4 weeks), the “serum AChE activities at the end of treatment” value is “unchanged”. Moreover, the remaining activity at 1 mg/kg at AChE (mouse, po, serum, 1 mg/kg p.o. once a day, individual animals, after vs before treatment, read-out: AChE residual activity) was 91.2%; at AChE (mouse, po, serum, 1 mg/kg p.o. once a day, read-out: AChE residual activity, AVERAGE), 101%. In addition, the remaining activity at 5 mg/kg at AChE (mouse, po, serum, 5 mg/kg p.o. once a day, read-out: AChE residual activity, AVERAGE) was 91.2%. In addition, the AChE residual activity at AChE (serum, 1 mg/kg p.o. once a day, individual animals, after vs before treatment, 1 mg/kg) was 104.0%±9.7% and 107.1%±22.3%; at AChE (serum, 5 mg/kg p.o. once a day, individual animals, after vs before treatment, 5 mg/kg), 89.7%±14.6% and 63.0%±13.9% and 121.0%±17.4%. Moreover, the “AChE activity AFTER treatment” value at AChE (serum, 1 mg/kg p.o. once a day, individual animals, 1 mg/kg) was 0.9541±0.2227 U/mL and 1.0365±0.0653 U/mL and 0.8481±0.0324 U/mL; at AChE (serum, 5 mg/kg p.o. once a day, individual animals, 5 mg/kg) it was 0.9258±0.0430 U/mL and 0.7420±0.1450 U/mL and 0.9517±0.0657 U/mL.
